Experimental findings from BindingDB's records for patent US9695132 (Celgene CAR LLC, 2017) are described below.

In assay [1] the target is T1, Fibroblast growth factor receptor 4 (Homo sapiens, UniProt P22455). Put plainly: Omnia Assay. As to conditions: pH 7.5. The procedure: Omnia Assay Protocol for Potency Assessment Against FGFR 4 Enzyme. a) [FGFR4-WT]=10 nM, [ATP]=300 uM, [Y10-Sox]=10 uM (ATP KMapp 300 uM): A 10x stock solution of FGFR4-WT (PR4380C), (from Invitrogen, Carlsbad, Calif.) corresponding to method a in Table 7, was prepared as described below. Alternatively, a 10x stock solution of FGFR4-WT (F01-11G), (SignalChem, Richmond, BC) corresponding to method b in Table 7, was prepared as described below. A solution of 1.4xATP (AS001A) and 5x Tyr-Sox conjugated peptide substrate (KNZ3101) were prepared in 1x kinase reaction buffer consisting of 20 mM Tris, pH 7.5, 5 mM MgCl2, 1 mM EGTA, 5 mM β-glycerophosphate, 5% glycerol (10x stock, KB002A) and 0.2 mM DTT (DS001A). […] The serially diluted compounds were prepared on a Tecan EVO100. A second addition of 10 ul of Tyr-Sox FGFR4 substrate was added to each well and the kinase reactions were started with the addition of 35 uL of 1.4xATP. The reactions were monitored every 71 seconds for 240 minutes at λex360/λem485 in a Synergy plate reader from BioTek (Winooski, Vt.).

In assay [2] the target is T1, Fibroblast growth factor receptor 4. Put plainly: Omnia Assay. The note with it: pH 7.5. This is another data set of the same source.

T1 sequence (P22455 whole entry): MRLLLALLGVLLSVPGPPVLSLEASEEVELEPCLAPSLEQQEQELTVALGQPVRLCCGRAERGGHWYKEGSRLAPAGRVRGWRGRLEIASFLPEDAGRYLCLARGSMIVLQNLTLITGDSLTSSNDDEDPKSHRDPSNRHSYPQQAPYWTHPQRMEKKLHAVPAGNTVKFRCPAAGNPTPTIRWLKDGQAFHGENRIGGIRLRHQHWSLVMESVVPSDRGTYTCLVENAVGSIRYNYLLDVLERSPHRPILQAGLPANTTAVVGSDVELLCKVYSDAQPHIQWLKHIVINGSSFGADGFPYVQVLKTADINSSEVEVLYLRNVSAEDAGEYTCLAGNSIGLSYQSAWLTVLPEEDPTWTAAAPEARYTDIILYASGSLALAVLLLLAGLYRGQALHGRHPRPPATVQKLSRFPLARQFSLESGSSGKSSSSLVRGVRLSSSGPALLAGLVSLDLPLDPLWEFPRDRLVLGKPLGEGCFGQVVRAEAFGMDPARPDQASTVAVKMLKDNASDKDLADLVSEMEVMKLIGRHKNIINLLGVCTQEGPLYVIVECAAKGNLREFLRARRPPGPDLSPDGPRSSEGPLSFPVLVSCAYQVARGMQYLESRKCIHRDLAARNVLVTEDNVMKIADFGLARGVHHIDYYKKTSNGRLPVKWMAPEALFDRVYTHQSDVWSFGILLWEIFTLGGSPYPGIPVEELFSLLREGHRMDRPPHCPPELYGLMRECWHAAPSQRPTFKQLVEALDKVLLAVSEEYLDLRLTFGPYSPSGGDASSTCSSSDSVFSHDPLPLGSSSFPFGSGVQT

Turning to `C=CC(=O)Nc1cc(N2CCC(C(=O)OC(C)(C)C)CC2)ccc1Nc1ncc2c(n1)N(C)C(=O)N(c1c(Cl)c(OC)cc(OC)c1Cl)C2` [US9695132, I-62], the IC50 in assay [1] is less than 100 nM.

Consider `C=CC(=O)NC1COCC1Nc1ncc2c(n1)N(Cc1c[nH]cn1)C(=O)N(c1c(Cl)c(OC)cc(OC)c1Cl)C2` (centres undefined) [US9695132, I-214], for which the IC50 in assay [1] was less than 100 nM.

`C=CC(=O)Nc1cccc(Nc2ncc3c(n2)N(Cc2cccc(NC(=O)CC)c2)C(=O)C(c2c(Cl)c(OC)cc(OC)c2Cl)C3)c1` (centres undefined) [US9695132, I-232] showed an IC50 in assay [2] of less than 100 nM.

In assay [2], `C=CC(=O)Nc1ccc(Nc2ncc3c(n2)N(Cc2cccc(NC(=O)CC)c2)C(=O)C(c2c(Cl)c(OC)cc(OC)c2Cl)C3)cc1` (centres undefined) [US9695132, I-233] returned an IC50 of less than 100 nM.
